Literature values as cited in US6900317B2, “Salts of the CGRP antagonist BIBN4096 and inhalable powdered medicaments containing them” (Boehringer Ingelheim Pharma GmbH & Co. KG, priority 2002, dated 2005).

Details: conventional preparations

bioavailability by oral route: only limited bioavailability
SMILES: NCCCC[C@H](NC(=O)[C@@H](Cc1cc(Br)c(O)c(Br)c1)NC(=O)N1CCC(N2Cc3ccccc3NC2=O)CC1)C(=O)N1CCN(c2ccncc2)CC1 [BIBN4096, 1-[N^2-[3,5-dibromo-N-[[4-(3,4-dihydro-2(1H)-oxoquinazolin-3-yl)-1-piperidinyl]carbonyl]-D-tyrosyl]-L-lysyl]-4-(4-pyridinyl)-piperazine]
